The values that follow come from paper PMC7996328, “Design, Synthesis, and Biological Evaluation of a Series of 5- and 7-Hydroxycoumarin Derivatives as 5-HT1A Serotonin Receptor Antagonists” (Pharmaceuticals, 2021).

Data set [1] has as its target T1, 5-HT1A receptor (Rattus norvegicus, UniProt P19327).
T1 construct: Hippocampal homogenates (15 μg/mL) were added to each tube as the 5-HT1A receptor source; from tissue; host or cells: rat hippocampus (male Sprague-Dawley), membrane homogenate
T1 sequence (P19327 1-422): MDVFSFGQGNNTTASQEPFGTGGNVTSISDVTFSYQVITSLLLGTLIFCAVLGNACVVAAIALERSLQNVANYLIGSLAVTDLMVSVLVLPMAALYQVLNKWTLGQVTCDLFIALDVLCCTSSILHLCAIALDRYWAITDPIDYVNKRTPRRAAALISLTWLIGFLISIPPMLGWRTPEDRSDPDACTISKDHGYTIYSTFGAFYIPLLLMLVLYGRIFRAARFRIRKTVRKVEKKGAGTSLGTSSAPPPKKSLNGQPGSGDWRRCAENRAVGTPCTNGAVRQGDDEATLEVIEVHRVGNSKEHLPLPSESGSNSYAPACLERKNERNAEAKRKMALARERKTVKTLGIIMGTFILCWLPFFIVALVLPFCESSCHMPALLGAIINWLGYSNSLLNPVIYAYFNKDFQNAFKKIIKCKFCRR
Briefly: G-protein enhancing (agonist) effect at the 5-HT1A receptor. Format: biochemical. Particulars: for functional character at the 5-HT1A receptor: in words.

In a further data set the target is T2, 5-HT2A receptor (Rattus norvegicus, UniProt P14842).
T2 construct: from tissue; host or cells: rat frontal cortex (male SD), membrane homogenate
T2 sequence (P14842 whole entry): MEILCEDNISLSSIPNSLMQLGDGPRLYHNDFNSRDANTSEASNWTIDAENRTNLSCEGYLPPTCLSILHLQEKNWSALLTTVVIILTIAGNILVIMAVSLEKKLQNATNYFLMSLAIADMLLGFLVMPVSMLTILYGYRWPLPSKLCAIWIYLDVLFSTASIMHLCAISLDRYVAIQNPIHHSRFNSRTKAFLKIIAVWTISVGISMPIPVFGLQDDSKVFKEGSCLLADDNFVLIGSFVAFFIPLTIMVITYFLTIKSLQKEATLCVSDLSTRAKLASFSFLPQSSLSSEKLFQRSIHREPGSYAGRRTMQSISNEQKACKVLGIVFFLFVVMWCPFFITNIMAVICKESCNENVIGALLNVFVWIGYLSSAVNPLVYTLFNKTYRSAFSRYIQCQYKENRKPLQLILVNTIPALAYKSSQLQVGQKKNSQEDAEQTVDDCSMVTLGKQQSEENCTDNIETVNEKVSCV
Description: 5-HT2A competition binding assay, [3H]ketanserin, frontal cortex homogenates. Particulars: [3H]ketanserin 1 nM, read-out: Ki (nM ± SEM) (converted).

For data set [2], the target named is T1, 5-HT1A receptor. Briefly: Antagonist activity for the 5-HT1A receptor, [35S]GTPγS assay in hippocampal homogenates. Particulars: 8-OH-DPAT 1.4 × 10^−7 M, mean ± SEM; for EC50: antagonistic activity. In kind it is biochemical. For orientation: Binding of GTPγS marks nucleotide exchange on a G protein.
The target of data set [3] is 5-HT1A receptor. Particulars: previously synthesized coumarins derivatives, Figure 1; read-out: Ki, 5-HT1A receptor affinity; cited from earlier work.
[4] abbreviates: G-protein enhancing effect, 5-HT1A.
[5] abbreviates: G-protein enhancing effect, 5-HT1A, read-out: EC50 (nM ± SEM).

Turning to `Cc1cc(OCCN2CCN(c3cccc(F)c3)CC2)c2c(C)cc(=O)oc2c1` [Compound 2e, 5-(2-(4-(3-fluorophenyl)piperazin-1-yl)ethoxy)-4,7-dimethyl-2H-chromen-2-one], the melting point was 120 to 122 °C. The Emax on 5-HT1A receptor [1] (setting [4]) worked out at 118 ± 1.48%. Further, the EC50 at 5-HT1A receptor [1] (setting [5]) came to 179 ± 39.3 nM. Besides, the “functional character at the 5-HT1A receptor” value on 5-HT1A receptor [1] is reported as “weak partial agonists”.
`Cc1cc(OCCN2CCN(c3cccc(Br)c3)CC2)c2c(C)cc(=O)oc2c1` [Compound 2g, 5-(4-(4-(3-bromophenyl)piperazin-1-yl)ethoxy)-4,7-dimethyl-2H-chromen-2-one]: the melting point is 126 to 127 °C. Further, the Ki at 5-HT2A receptor was 3540 nM. For the same compound, on 5-HT1A receptor [1] (setting [4]), the Emax stood at 118 ± 6.5% and the “Emax (% ± SEM)” value was found to be 113 ± 6.5%. For the same compound, the EC50 on 5-HT1A receptor [1] (setting [5]) was determined as 5080 ± 2640 nM. Further, at 5-HT1A receptor [1] (G-protein enhancing effect, 5-HT1A, read-out: pEC50 (converted)), the EC50 was 6310 nM. Also, on 5-HT1A receptor [1], the “functional character at the 5-HT1A receptor” value is recorded as “weak partial agonists”.
As for `CC(=O)c1c(OCCN2CCN(c3cc(C)ccc3C)CC2)ccc2c(C)cc(=O)oc12` [Compound 6d, 8-acetyl-7-(2-[4-(2,5-dimethylphenyl)piperazin-1-yl]ethoxy)-4-methylchromen-2-one], the melting point was in the range of 96 to 98 °C. The Ki on 5-HT2A receptor is 2050 ± 405 nM. At 5-HT1A receptor [2], this compound showed an IC50 of 63.1 µM and an EC50 of 59900 nM.
With `CC(=O)c1c(OCCN2CCN(c3cccc(F)c3)CC2)ccc2c(C)cc(=O)oc12` [Compound 6e, 8-acetyl-7-(2-[4-(3-fluorophenyl)piperazin-1-yl]ethoxy)-4-methylchromen-2-one], the melting point was 86 to 88 °C. Further, the Ki at 5-HT2A receptor is 1670 ± 274 nM. On 5-HT1A receptor [2], the midpoint of inhibition, the IC50, lay at 100 µM and the EC50 is 98900 nM.
Regarding `CC(=O)c1c(OCCN2CCN(c3ccccc3Br)CC2)ccc2c(C)cc(=O)oc12` [Compound 6f, 8-acetyl-7-(2-[4-(2-bromophenyl)piperazin-1-yl]ethoxy)-4-methylchromen-2-one], the melting point fell in the range of 145 to 147 °C. The Ki at 5-HT2A receptor is 1500 ± 268 nM. On 5-HT1A receptor [2], this compound gave an IC50 of 50.1 µM and an EC50 of 46800 nM.
The matching figures for `CC(=O)c1c(OCCN2CCN(c3cc(C)cc(C)c3)CC2)ccc2c(C)cc(=O)oc12` [Compound 6h, 8-acetyl-7-(2-[4-(3,5-dimethylphenyl)piperazin-1-yl]ethoxy)-4-methylchromen-2-one]: 120 to 121 °C, 479 ± 96 nM, 50.1 µM and 47800 nM.
In turn, `CC(=O)c1c(OCCN2CCN(c3cccc(Cl)c3Cl)CC2)ccc2c(C)cc(=O)oc12` [Compound 6i, 8-acetyl-7-(2-[4-(2,3-dichlorophenyl)piperazin-1-yl]ethoxy)-4-methylchromen-2-one] returned a melting point of 159 to 161 °C. The Ki at 5-HT2A receptor is 755 ± 178 nM. Besides, on 5-HT1A receptor [2], the 50% inhibitory concentration (IC50) is 200 µM and the EC50 is 204000 nM.
`CC(=O)c1c(OCCN2CCN(c3ccccc3C#N)CC2)ccc2c(C)cc(=O)oc12` [Compound 6j, 8-acetyl-7-(2-[4-(2-cyanophenyl)piperazin-1-yl]ethoxy)-4-methylchromen-2-one] yielded a melting point of 155 to 157 °C. The Ki at 5-HT2A receptor is 496 ± 121 nM. On 5-HT1A receptor [2], this compound gave an IC50 of 7.94 µM and an EC50 of 7800 ± 1880 nM.
For `Cc1cc(OCCCN2CCN(c3ccccc3F)CC2)c2c(C)cc(=O)oc2c1` [IIa], the Ki at 5-HT1A receptor [3] was 0.0017 ± 5e-06 µM.
As to `Cc1cc(OCCCCN2CCN(c3ccccc3F)CC2)c2c(C)cc(=O)oc2c1` [IIb], on 5-HT1A receptor [3], the Ki was 0.003 ± 0.0001 µM.
Turning to `Cc1cc(OCCCN2CCN(c3cccc(Cl)c3Cl)CC2)c2c(C)cc(=O)oc2c1` [IIc], at 5-HT1A receptor [3], the Ki was 0.008 ± 4e-05 µM.
With `Cc1cc(OCCCCN2CCN(c3cccc(Cl)c3Cl)CC2)c2c(C)cc(=O)oc2c1` [IId], the Ki on 5-HT1A receptor [3] is 0.004 ± 0.0008 µM.
Take `Cc1cc(OCCCN2CCN(c3ccccc3C#N)CC2)c2c(C)cc(=O)oc2c1` [IIe]: at 5-HT1A receptor [3], the Ki was 0.0015 ± 0.0002 µM.
Take `Cc1cc(OCCCCN2CCN(c3ccccc3C#N)CC2)c2c(C)cc(=O)oc2c1` [IIf]: the Ki at 5-HT1A receptor [3] is 0.003 ± 0.0002 µM.

What is called Emax is the greatest response seen or fitted, relative to the assay's reference. A word on the melting point: it is the temperature of the solid-liquid transition. Broadly, the Ki is a dissociation constant, usually derived from enzyme kinetics or from competition with a known ligand. A word on the IC50: it is the concentration that inhibits the measured activity by half. A high value points to lower potency.
